Source: patent US6596766B1, “Utilization of material containing docosapentaenoic acid” (Suntory Limited, priority 1999, dated 2003)

Experiment: Fatty acid composition in the livers of rats fed DHA-containing oil (Example 2)
Assay type: in vivo, Wistar rats
Conditions: rat liver, versus control group
Excerpt: Four-week-old male Wistar rats were initially raised for one week, and then divided into 2 groups described below.
perilla oil: safflower oil=7:3
rapeseed oil: DHA ethyl ester=3:2
For 4 weeks, the rats were fed experimental diets prepared by mixing 5% of the indicated oils for each of the groups to the basal feed.
The livers were excised from the raised rats of both groups, and lipids were extracted by the Folch method and upon conversion to the methyl ester, the amount of each fatty acid was analyzed by gas chromatography.

CCC=CCC=CCC=CCC=CCC=CCC=CCCC(=O)O [DHA, 4,7, 10, 13, 16, 19-docosahexaenoic acid]
effect on the proportion of ARA in the liver (in words): significant decrease in the proportion of ARA
